Results taken from patent publication US12065699B2, “Monitoring and diagnosis for immunotherapy, and design for therapeutic agent” (Repertoire Genesis Incorporation, priority 2016, dated 2024).

Tests used:
CD8 positive cells = assay: intracellular interferon γ staining (flow cytometry); format: cell-based, human; parameters: key: ++ refers to a sample found to produce interferon γ in 3/3; + refers to a sample found to produce interferon γ in ⅓ to ⅔; settings: 5×10^5 lymphocytes, peptide 1 μg/ml, 4 hours
Experimental: (§1) Peripheral blood of healthy individuals with the same HLA-A*02:01 as the subject sample (tumor patient) was used. An experiment of reactivity was conducted using peptides that were manufactured therefor.
The obtained samples were subjected to intracellular interferon γ staining. 5×10^5 lymphocytes were stimulated and cultured for 4 hours in a 200 μl medium. Neoantigen peptides and control peptides were added so that the final concentration was 1 μg/ml for stimulation. An unstimulated control was also prepared. BioLegend Brefeldin A Solution (1,000×) was added so that the final concentration would be 5.0 μg/ml during stimulation. After the completion of culturing, the cells were collected and stained for 30 minutes at 4° C. with Fixable Viability Dye eFluor780 (eBioscience 65-0865-18), FITC labeled anti-CD4 antibody (BD Pharmingen™557307), ECD labeled anti-CD8 antibody (BECKMAN COULTER 41116015) and PerCP-CY5.5 labeled anti-CD3 antibody (Biolegend 300430).
The cells were treated for 15 minutes with Intraprep permeabilization reagent (Immunotech, Marseille, France). The cells were stained for 15 minutes with PE labeled anti-IL-2 antibody (BD Pharmingen™559334), Alexa700 labeled anti-TNFα antibody (BD Pharmingen™557996), and Pacific Blue labeled anti-IFN-γ antibody (Biolegend 502522)
After suspension into PBS containing 0.5% PFA, measurement was taken with Gallios flow cytometer (BECKMAN COULTER). For intracellular flow cytometry sorting, CD8 positive cells were used to analyze the production of interferon γ.

[1] = test system: peripheral blood of healthy individuals with HLA-A*02:01; assay: interferon γ ELISPOT assay; format: cell-based, human; parameters: key: ++ refers to a sample found to produce interferon γ in 3/3; + refers to a sample found to produce interferon γ in ⅓ to ⅔; settings: 1×10^5 cells stimulated 16 hours; HLA-A*02:01 healthy donor peripheral blood
Experimental: as §1
The conducted assay performed interferon γ ELISPOT and intracellular interferon γ staining. For the interferon γ ELISPOT, MABTECH anti-human IFN-γ mAb 1-D1K, purified (3420-3-250) was used as a capture antibody. In addition, MILLIPORE MultiScreen HTS 96-well Filtration Plate was used.
Briefly stated, the following was performed. • (1) Cytokine (interferon-γ in this example) specific monoclonal antibodies (MABTECH anti-human IFN-γ mAb 1-D1K, purified (3420-3-250)) were immobilized on the solid layer surface. MILLIPORE MultiScreen HTS 96-well Filtration Plate was used in this example. • (2) 1×10^5 cells were stimulated and cultured for 16 hours after washing. The secreted cytokines, i.e., interferon-γ, were bound to capture antibodies (Detection antibody; MABTECH anti-human IFN-γ mAb 7-B6-1, biotinylated (3420-6-250)) that were around the producing cells. After removing the cells by washing, anti-interferon γ antibodies for detection were added.
For biotin labeled detection antibodies, enzyme labeled streptavidin (MABTECH Streptavidin-HRP (3310-9)) was added. • (3) Next, BD ELISPOT AEC Substrate Set (551951) was used for coloration. This method allows the spot corresponding to the position where interferon γ (cytokine) producing cell was located to be seen. The obtained spots were counted with a Carl Zeiss KS ELISPOT (Minerva Tech). The frequency of positive cells was recorded. (Intracellular Interferon γ Staining)

NISSRIHTV [pepID 33]
IFNγ secretion Intra (CD8 positive cells): ++
IFNγ secretion ELISPOT [1]: +

7 (VLNINDNEPV) [compound 7]
IFNγ secretion Intra (CD8 positive cells): ++

36 (ILQEYREDFV) [compound 36]
IFNγ secretion Intra (CD8 positive cells): +

18 (ICFLALECLAH) [compound 18]
IFNγ secretion ELISPOT [1]: ++

21 (QLLEPEISFL) [compound 21]
IFNγ secretion Intra (CD8 positive cells): ++

FLALECLAHL [pepID 14]
IFNγ secretion Intra (CD8 positive cells): ++
IFNγ secretion ELISPOT [1]: ++

30 (ALYPFEFRS) [compound 30]
IFNγ secretion Intra (CD8 positive cells): +

27 (KVLQLLEPEI) [compound 27]
IFNγ secretion Intra (CD8 positive cells): +

42 (KTFTYSSAL) [compound 42]
IFNγ secretion ELISPOT [1]: ++

43 (FQYSSPALPT) [compound 43]
IFNγ secretion ELISPOT [1]: ++

FTYSSALKV [pepID 41]
IFNγ secretion Intra (CD8 positive cells): ++
IFNγ secretion ELISPOT [1]: ++

12 (NLKKLLVF) [compound 12]
IFNγ secretion ELISPOT [1]: ++
